Assays:
[1] = target: T1, adrenergic α2C receptor (Homo sapiens, UniProt P18825); assay: Binding assay α2C (h), [3H]RX 821002, CHO cells; set-up: expressed in transfected cells; host or cells: CHO cells; conditions: read-out: α2C [%]
T1 sequence (P18825 1-462): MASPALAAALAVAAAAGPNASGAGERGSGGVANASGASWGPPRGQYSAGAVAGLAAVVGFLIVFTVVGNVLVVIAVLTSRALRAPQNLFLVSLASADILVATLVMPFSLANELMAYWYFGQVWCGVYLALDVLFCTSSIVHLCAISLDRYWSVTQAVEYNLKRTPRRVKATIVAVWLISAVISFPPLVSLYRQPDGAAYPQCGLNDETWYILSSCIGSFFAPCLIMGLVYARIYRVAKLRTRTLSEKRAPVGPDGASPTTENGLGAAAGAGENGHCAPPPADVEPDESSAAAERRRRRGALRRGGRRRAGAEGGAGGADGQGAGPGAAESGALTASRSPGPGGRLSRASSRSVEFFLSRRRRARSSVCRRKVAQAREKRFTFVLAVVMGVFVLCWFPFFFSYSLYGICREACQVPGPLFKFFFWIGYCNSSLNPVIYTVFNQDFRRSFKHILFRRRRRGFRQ
Procedure, shortened: (§1)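 Binding read by scintillation counting. Non-specific component defined by excess unlabelled ligand and removed from total counts. Compounds at 1×10^−6 M.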

[2] = target: serotoninergic 5-HT7 receptor (Homo sapiens, UniProt P34969); assay: Cellular functional assay, serotoninergic 5-HT7 receptor (agonism/antagonism); format: cell-based; conditions: for activation at 1 µM: agonist effect, percent of control specific agonist response, compounds tested at 1×10^−6M, read-out: 5-HT7-ag [%]; for inhibition at 1 µM: read-out: 5-HT7-antag. [%]
Sequence of serotoninergic 5-HT7 receptor (P34969 whole entry): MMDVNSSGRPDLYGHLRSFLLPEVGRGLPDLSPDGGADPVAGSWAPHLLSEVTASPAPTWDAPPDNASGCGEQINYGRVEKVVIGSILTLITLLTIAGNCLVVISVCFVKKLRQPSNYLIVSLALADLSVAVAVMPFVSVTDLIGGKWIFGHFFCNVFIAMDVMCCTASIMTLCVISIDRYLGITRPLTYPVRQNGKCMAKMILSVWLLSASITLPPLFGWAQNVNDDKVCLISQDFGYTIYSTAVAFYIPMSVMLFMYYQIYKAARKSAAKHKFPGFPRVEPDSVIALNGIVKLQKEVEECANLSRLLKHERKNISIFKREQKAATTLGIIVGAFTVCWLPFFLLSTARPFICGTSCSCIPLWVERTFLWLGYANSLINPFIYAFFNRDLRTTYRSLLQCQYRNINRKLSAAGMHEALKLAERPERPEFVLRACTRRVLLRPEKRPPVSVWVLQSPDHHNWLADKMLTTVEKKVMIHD
Experimental: (§2) The compounds were tested at the concentration of 1×10^−6M.
(§3) In the Tables ag refers to agonism, and antag to antagonism).

[3] = system: sigma σ receptor; assay: Binding assay σ (non-selective), [3H]DTG, rat cerebral cortex; conditions: percent inhibition of control specific binding; compounds tested at 1×10^−6 M
Procedure, shortened: as §1

[4] = target: T2, serotoninergic 5-HT1A receptor (Homo sapiens, UniProt P08908); assay: Binding assay 5-HT1A (h), [3H]8-OH-DPAT, HEK-293 cells; set-up: expressed in transfected cells; host or cells: HEK-293 cells; conditions: read-out: 5-HT1A
T2 sequence (P08908 1-422): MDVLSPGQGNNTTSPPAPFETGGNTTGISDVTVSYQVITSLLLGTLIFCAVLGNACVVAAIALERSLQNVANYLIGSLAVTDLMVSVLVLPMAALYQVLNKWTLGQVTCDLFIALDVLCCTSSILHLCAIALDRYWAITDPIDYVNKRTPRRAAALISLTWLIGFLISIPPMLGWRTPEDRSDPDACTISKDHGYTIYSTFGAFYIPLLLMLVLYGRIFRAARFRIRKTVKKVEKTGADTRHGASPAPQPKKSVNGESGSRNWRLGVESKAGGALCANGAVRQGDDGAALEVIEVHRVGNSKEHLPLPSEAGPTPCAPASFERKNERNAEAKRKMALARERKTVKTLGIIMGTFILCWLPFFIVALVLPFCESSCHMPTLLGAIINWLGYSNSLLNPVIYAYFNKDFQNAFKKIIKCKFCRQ
Procedure, shortened: as §1

[5] = target: T1, adrenergic α2C receptor; assay: Cellular functional assay, adrenergic α2C receptor (agonism/antagonism); format: cell-based; conditions: for activation at 1 µM: agonist effect, percent of control specific agonist response, compounds tested at 1×10^−6M, read-out: α2C −ag [%]; for inhibition at 1 µM: read-out: α2C −antag. [%]
Experimental: as §2, §3

[6] = target: serotoninergic 5-HT6 receptor (Homo sapiens, UniProt P50406); assay: Binding assay 5-HT6 (h), [3H]LSD, CHO cells; set-up: expressed in transfected cells; host or cells: CHO cells; conditions: read-out: 5-HT6
Sequence of serotoninergic 5-HT6 receptor (P50406 whole entry): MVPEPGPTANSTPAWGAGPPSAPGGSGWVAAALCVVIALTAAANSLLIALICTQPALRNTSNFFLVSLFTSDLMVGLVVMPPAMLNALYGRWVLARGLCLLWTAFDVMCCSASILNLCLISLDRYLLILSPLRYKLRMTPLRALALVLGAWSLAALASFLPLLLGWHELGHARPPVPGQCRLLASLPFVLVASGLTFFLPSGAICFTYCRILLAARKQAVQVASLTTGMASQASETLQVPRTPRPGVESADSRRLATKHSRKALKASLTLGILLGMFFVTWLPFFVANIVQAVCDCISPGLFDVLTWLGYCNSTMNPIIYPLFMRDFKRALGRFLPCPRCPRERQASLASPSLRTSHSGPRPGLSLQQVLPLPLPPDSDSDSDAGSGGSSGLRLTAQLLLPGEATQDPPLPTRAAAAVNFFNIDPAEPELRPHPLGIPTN
Procedure, shortened: as §1

[7] = target: T2, serotoninergic 5-HT1A receptor; assay: Cellular functional assay, serotoninergic 5-HT1A receptor (agonism/antagonism); format: cell-based; conditions: for inhibition at 1 µM: CHO, read-out: 5-HT1A-antag. [%]; for activation at 1 µM: agonist effect, percent of control specific agonist response (100 nM 8-OH-DPAT for control), 1×10^−6 M, 5-HT1A (h), CHO cells, read-out: 5-HT1A-ag [%]
Experimental: as §2, §3

[8] = system: adrenergic α1 receptor; assay: Binding assay α1 (non-selective), [3H]prazosin, rat cerebral cortex; conditions: percent inhibition of control specific binding; compounds tested at 1×10^−6 M
Procedure, shortened: as §1

[9] = target: dopaminergic D2 receptor (Homo sapiens, UniProt P14416); assay: Binding assay D2S (h), [3H]methyl-spiperone, HEK-293 cells; set-up: expressed in transfected cells; host or cells: HEK-293 cells; conditions: read-out: D2 [%]
Sequence of dopaminergic D2 receptor (P14416 1-414 isoform P14416-2): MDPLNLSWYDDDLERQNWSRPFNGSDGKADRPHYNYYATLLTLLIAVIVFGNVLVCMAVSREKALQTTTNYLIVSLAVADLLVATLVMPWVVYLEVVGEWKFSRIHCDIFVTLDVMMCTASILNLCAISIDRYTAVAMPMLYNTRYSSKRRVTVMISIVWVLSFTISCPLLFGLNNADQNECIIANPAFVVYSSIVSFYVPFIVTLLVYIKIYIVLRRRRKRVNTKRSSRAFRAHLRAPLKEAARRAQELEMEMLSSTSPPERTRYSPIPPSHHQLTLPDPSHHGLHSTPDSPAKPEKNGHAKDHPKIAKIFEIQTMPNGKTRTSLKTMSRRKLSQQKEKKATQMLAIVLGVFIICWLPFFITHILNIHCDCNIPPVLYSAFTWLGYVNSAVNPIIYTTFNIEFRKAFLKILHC
Procedure, shortened: as §1

[10] = target: dopaminergic D3 receptor (Homo sapiens, UniProt P35462); assay: Binding assay D3 (h), [3H]methyl-spiperone, CHO cells; set-up: expressed in transfected cells; host or cells: CHO cells; conditions: read-out: D3 [%]
Sequence of dopaminergic D3 receptor (P35462 whole entry): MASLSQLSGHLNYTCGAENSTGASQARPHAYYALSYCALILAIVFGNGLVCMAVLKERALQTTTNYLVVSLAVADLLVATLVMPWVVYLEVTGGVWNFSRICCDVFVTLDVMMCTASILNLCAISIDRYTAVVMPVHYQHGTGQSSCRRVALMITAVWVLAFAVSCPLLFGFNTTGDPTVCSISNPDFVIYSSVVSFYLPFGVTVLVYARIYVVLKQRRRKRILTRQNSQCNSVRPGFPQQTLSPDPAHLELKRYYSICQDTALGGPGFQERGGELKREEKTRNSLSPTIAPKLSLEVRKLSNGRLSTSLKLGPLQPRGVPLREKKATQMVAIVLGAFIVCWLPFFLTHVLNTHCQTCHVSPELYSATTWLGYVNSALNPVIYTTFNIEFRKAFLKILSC
Procedure, shortened: as §1

[11] = target: serotoninergic 5-HT2A receptor (Homo sapiens, UniProt P28223); assay: Binding assay 5-HT2A (h), [3H]ketanserin, HEK-293 cells; set-up: expressed in transfected cells; host or cells: HEK-293 cells; conditions: read-out: 5-HT2A
Sequence of serotoninergic 5-HT2A receptor (P28223 whole entry): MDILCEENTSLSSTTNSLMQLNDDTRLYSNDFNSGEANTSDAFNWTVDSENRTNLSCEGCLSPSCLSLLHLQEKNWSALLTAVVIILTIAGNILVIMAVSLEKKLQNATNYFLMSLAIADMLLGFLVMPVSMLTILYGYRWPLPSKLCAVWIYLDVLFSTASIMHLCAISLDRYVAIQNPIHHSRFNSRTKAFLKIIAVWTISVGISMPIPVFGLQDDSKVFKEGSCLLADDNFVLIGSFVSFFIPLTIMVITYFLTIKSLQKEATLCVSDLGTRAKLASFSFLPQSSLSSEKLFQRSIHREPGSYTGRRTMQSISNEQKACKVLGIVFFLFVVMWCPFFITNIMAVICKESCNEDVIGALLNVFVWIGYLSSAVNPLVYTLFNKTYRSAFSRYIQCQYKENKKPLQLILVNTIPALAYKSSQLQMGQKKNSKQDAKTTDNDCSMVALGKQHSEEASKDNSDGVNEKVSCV
Procedure, shortened: as §1

[12] = target: T3, serotonine transporter (SERT) receptor (Homo sapiens, UniProt P31645); assay: Binding assay SERT (h), [3H]imipramine, CHO cells; conditions: read-out: SERT [%]
T3 construct: expressed in transfected cells; host or cells: CHO cells
T3 sequence (P31645 whole entry): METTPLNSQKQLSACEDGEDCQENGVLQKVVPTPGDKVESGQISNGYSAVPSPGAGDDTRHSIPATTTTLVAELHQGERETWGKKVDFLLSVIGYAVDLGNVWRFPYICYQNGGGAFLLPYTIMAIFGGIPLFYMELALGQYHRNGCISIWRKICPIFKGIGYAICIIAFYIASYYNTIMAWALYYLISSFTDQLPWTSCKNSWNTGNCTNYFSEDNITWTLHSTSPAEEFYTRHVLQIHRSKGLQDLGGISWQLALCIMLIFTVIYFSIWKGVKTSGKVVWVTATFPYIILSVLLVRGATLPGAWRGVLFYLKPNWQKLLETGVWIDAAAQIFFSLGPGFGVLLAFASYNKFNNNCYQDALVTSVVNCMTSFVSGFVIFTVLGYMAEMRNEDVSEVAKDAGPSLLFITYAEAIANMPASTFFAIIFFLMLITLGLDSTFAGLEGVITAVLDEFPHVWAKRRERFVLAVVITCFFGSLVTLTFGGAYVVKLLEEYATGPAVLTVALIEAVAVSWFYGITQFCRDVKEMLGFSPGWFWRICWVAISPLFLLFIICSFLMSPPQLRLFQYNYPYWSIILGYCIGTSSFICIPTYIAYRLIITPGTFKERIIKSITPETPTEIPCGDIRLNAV
Procedure, shortened: as §1

SMILES	inhibition at 1 µM [1]	activation at 1 µM [2]	inhibition at 1 µM [2]	σ [%] [3]	inhibition at 1 µM [4]	activation at 1 µM [5]	inhibition at 1 µM [5]	inhibition at 1 µM [6]	inhibition at 1 µM [7]	activation at 1 µM [7]	α1 [%] [8]	inhibition at 1 µM [9]	inhibition at 1 µM [10]	inhibition at 1 µM [11]	inhibition at 1 µM [12]
O=S(=O)(NCCCCN1CCC(c2noc3cc(F)ccc23)CC1)c1ccc2cc(Cl)ccc2c1 [Compound 97, 6-Chloro-N-[4-[4-(6-fluoro-1,2-benzoxazol-3-yl)piperidin-1-yl]butyl]naphthalene-2-sulphonamide]	100%	-2%	100%	55%	75%	-4%	36%	98%	38%	13%	98%	100%	100%	100%	61%
Cc1c(S(=O)(=O)NCCCN2CCC(c3noc4cc(F)ccc34)CC2)sc2ccc(F)cc12 [Compound 102, 5-Fluoro-N-[3-[4-(6-fluoro-1,2-benzoxazol-3-yl)piperidin-1-yl]propyl]-3-methylbenzothiophene-2-sulphonamide]	101%	-2%	94%	74%	92%	-7%	14%	97%	35%	1%	99%	100%	103%	101%	38%
O=S(=O)(NCCCCN1CCN(c2cccc3[nH]ccc23)CC1)c1cc2ccccc2s1 [Compound 33, N-{4-[4-(1H-Indol-4-yl)piperazin-1-yl]butyl}-1-benzothiophene-2-sulphonamide]	100%	19%	20%	94%	100%	-1%	6%	42%	24%	63%	100%	97%	101%	95%	-4%
O=S(=O)(NCCCCN1CCN(c2cccc3[nH]ccc23)CC1)c1ccccc1 [Compound 27, N-{4-[4-(1H-Indol-4-yl)piperazin-1-yl]butyl}benzenesulphonamide]	100%	5%	8%	78%	99%	3%	31%	34%	48%	56%	96%	90%	96%	62%	-3%
O=c1[nH]c2cccc(N3CCN(CCCNS(=O)(=O)c4ccc5ccccc5c4)CC3)c2[nH]1 [Compound 424, N-[3-[4-(2-oxo-1,3-dihydrobenzimidazol-4-yl)piperazin-1-yl]propyl]naphthalene-2-sulphonamide]	67%	18%	43%	−3%	99%	–	–	69%	75%	23%	93%	97%	98%	66%	-3%
O=c1[nH]c2ccc(S(=O)(=O)NCCCCN3CCN(c4noc5ccccc45)CC3)cc2o1 [Compound 16, N-(4-(4-(1,2-Benzoxazol-3-yl)piperazin-1-yl)butyl)-2-oxo-3H-1,3-benzoxazole-6-sulphonamide]	101%	-1%	80%	2%	93%	-7%	9%	94%	91%	-14%	101%	99%	99%	100%	-3%
O=c1[nH]c2ccc(S(=O)(=O)NCCCN3CCN(c4nsc5ccccc45)CC3)cc2o1 [Compound 8, N-(3-(4-(1,2-Benzothiazol-3-yl)piperazin-1-yl)propyl)-2-oxo-3H-1,3-benzoxazole-6-sulphonamide]	93%	-1%	82%	17%	100%	-16%	1%	91%	81%	14%	94%	98%	97%	100%	63%
O=S(=O)(NCCCCN1CCN(c2cccc3[nH]ccc23)CC1)c1ccc2ccccc2c1 [Compound 26, N-{4-[4-(1H-Indol-4-yl)piperazin-1-yl]butyl}naphthalene-2-sulphonamide]	100%	14%	13%	99%	100%	25%	53%	51%	22%	67%	98%	97%	98%	98%	14%
O=S(=O)(NCCCCN1CCN(c2nsc3ccccc23)CC1)c1cc2ccccc2s1 [Compound 239, N-[4-[4-(1,2-Benzothiazol-3-yl)piperazin-1-yl]butyl]benzothiophene-2-sulphonamide]	105%	-2%	81%	69%	98%	3%	33%	96%	58%	7%	99%	102%	102%	101%	64%
O=c1[nH]c2cccc(N3CCN(CCCNS(=O)(=O)c4cccc5ccccc45)CC3)c2[nH]1 [Compound 423, N-[3-[4-(2-oxo-1,3-dihydrobenzimidazol-4-yl)piperazin-1-yl]propyl]naphthalene-1-sulphonamide]	69%	–	–	9%	99%	–	–	16%	73%	35%	91%	97%	98%	30%	25%

Reference: patent publication US8822517B2, “Arylosulfonamides for the treatment of CNS diseases” (Adamed SP. Z O.O., priority 2010, dated 2014)
